“And” between values parts separate entries of the source, which are not always exact repeats. Identical values can stand only once. Toxic doses and inconclusive results are not listed. No stated cut-off is given here; in the data, active means T/C of 150% or more; inactive means T/C below 125%.
Tested on: L1210 leukemia ip in BDF1 mice, survival T/C
Experiment: NCI In Vivo Anticancer Drug Screen. Data for tumor model L1210 Leukemia (intraperitoneal) in B6D2F1 (BDF1) mice
Conditions: endpoint: mean survival time, higher = longer survival
How it was run: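 Transplantable tumor model; survival measured in treated vs vehicle control mice. Value = treated/control.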

[1] = dose: 100.0 mg/kg/injection, schedule: Q04DX003 (ip), vehicle: Klucel (hydroxypropylcellulose) (HPC)
[2] = dose: 200.0 mg/kg/injection, schedule: Q04DX003 (ip), vehicle: Klucel (hydroxypropylcellulose) (HPC)
[3] = dose: 100.0 mg/kg/injection, schedule: Q01DX009 (ip), vehicle: Klucel (hydroxypropylcellulose) (HPC)
[4] = dose: 200.0 mg/kg/injection, schedule: Q01DX009 (ip), vehicle: Klucel (hydroxypropylcellulose) (HPC)

Measured: T/C

CCN1C=C/C(=C\C=C/c2cc[n+](CC)c3ccccc23)c2ccccc21
inactive: dose: 0.05 mg/kg/injection, schedule: Q01DX Z (ip), vehicle: methylcellulose (MC) 96 % of control | dose: 0.06 mg/kg/injection, schedule: Q01DX Z (ip), vehicle: methylcellulose (MC) 106 % of control and 121 % of control | dose: 0.08 mg/kg/injection, schedule: Q01DX Z (ip), vehicle: methylcellulose (MC) 104 % of control | dose: 0.1 mg/kg/injection, schedule: Q01DX Z (ip), vehicle: methylcellulose (MC) 107 % of control | dose: 0.11 mg/kg/injection, schedule: Q01DX Z (ip), vehicle: methylcellulose (MC) 121 % of control | dose: 0.15 mg/kg/injection, schedule: Q01DX Z (ip), vehicle: methylcellulose (MC) 119 % of control | dose: 0.3 mg/kg/injection, schedule: Q01DX Z (ip), vehicle: methylcellulose (MC) 113 % of control and 120 % of control and 121 % of control | dose: 0.33 mg/kg/injection, schedule: Q01DX009 (ip), vehicle: saline with Tween-80 118 % of control | dose: 0.33 mg/kg/injection, schedule: Q03HX024 (ip), vehicle: saline with Tween-80 109 % of control | dose: 0.4 mg/kg/injection, schedule: Q01DX Z (ip), vehicle: methylcellulose (MC) 112 % of control | dose: 0.44 mg/kg/injection, schedule: Q01DX009 (ip), vehicle: saline with Tween-80 121 % of control | dose: 0.48 mg/kg/injection, schedule: Q01DX009 (ip), vehicle: saline with Tween-80 112 % of control | dose: 0.5 mg/kg/injection, schedule: Q01DX009 (ip), vehicle: saline 101 % of control | dose: 0.5 mg/kg/injection, schedule: Q04DX003 (ip), vehicle: saline sonified 107 % of control | dose: 0.67 mg/kg/injection, schedule: Q01DX001 (ip), vehicle: saline with Tween-80 105 % of control | dose: 0.67 mg/kg/injection, schedule: Q04DX003 (ip), vehicle: saline with Tween-80 105 % of control | dose: 0.7 mg/kg/injection, schedule: Q01DX Z (ip), vehicle: methylcellulose (MC) 96 % of control | dose: 0.74 mg/kg/injection, schedule: Q01DX009 (ip), vehicle: saline with Tween-80 114 % of control and 118 % of control | dose: 1.0 mg/kg/injection, schedule: Q01DX001 (ip), vehicle: saline with Tween-80 105 % of control | dose: 1.0 mg/kg/injection, schedule: Q01DX009 (ip), vehicle: saline 107 % of control | dose: 1.0 mg/kg/injection, schedule: Q01DX Z (ip), vehicle: methylcellulose (MC) 100 % of control | dose: 1.0 mg/kg/injection, schedule: Q04DX003 (ip), vehicle: saline sonified 110 % of control | dose: 1.1 mg/kg/injection, schedule: Q01DX009 (ip), vehicle: saline with Tween-80 105 % of control | dose: 1.5 mg/kg/injection, schedule: Q01DX001 (ip), vehicle: saline with Tween-80 112 % of control | dose: 1.5 mg/kg/injection, schedule: Q01DX Z (ip), vehicle: methylcellulose (MC) 108 % of control | dose: 1.5 mg/kg/injection, schedule: Q04DX003 (ip), vehicle: saline with Tween-80 113 % of control | dose: 2.0 mg/kg/injection, schedule: Q04DX003 (ip), vehicle: saline sonified 118 % of control | dose: 2.2 mg/kg/injection, schedule: Q01DX001 (ip), vehicle: saline with Tween-80 110 % of control | dose: 2.2 mg/kg/injection, schedule: Q04DX003 (ip), vehicle: saline with Tween-80 98 % of control | dose: 3.3 mg/kg/injection, schedule: Q01DX001 (ip), vehicle: saline with Tween-80 100 % of control and 88 % of control | dose: 7.4 mg/kg/injection, schedule: Q01DX001 (ip), vehicle: saline with Tween-80 105 % of control | dose: 67.0 micrograms/kg/injection, schedule: Q03HX024 (ip), vehicle: saline with Tween-80 102 % of control | dose: 100.0 micrograms/kg/injection, schedule: Q03HX024 (ip), vehicle: saline with Tween-80 101 % of control | dose: 150.0 micrograms/kg/injection, schedule: Q03HX024 (ip), vehicle: saline with Tween-80 104 % of control | dose: 220.0 micrograms/kg/injection, schedule: Q03HX024 (ip), vehicle: saline with Tween-80 97 % of control | dose: 330.0 micrograms/kg/injection, schedule: Q03HX024 (ip), vehicle: saline with Tween-80 102 % of control

O=S(O)c1ccccc1
inactive: dose: 100.0 mg/kg/injection, schedule: Q01DX009 (ip), vehicle: saline 96 % of control | dose: 200.0 mg/kg/injection, schedule: Q01DX009 (ip), vehicle: saline 105 % of control | dose: 400.0 mg/kg/injection, schedule: Q01DX009 (ip), vehicle: saline 103 % of control

O=C(Nc1cccc(Cl)c1)c1cc(N=Nc2ccc([N+](=O)[O-])cc2Cl)ccc1O
inactive: [1] 103 % of control | [2] 104 % of control

CC1(C)C[n+]2noc([O-])c2C(C)(C)C1
inactive: dose: 0.19 mg/kg/injection, schedule: Q04DX003 (ip), vehicle: alcohol 104 % of control | dose: 0.39 mg/kg/injection, schedule: Q01DX009 (ip), vehicle: alcohol 100 % of control | dose: 0.39 mg/kg/injection, schedule: Q04DX003 (ip), vehicle: alcohol 96 % of control | dose: 0.78 mg/kg/injection, schedule: Q01DX009 (ip), vehicle: alcohol 105 % of control | dose: 0.78 mg/kg/injection, schedule: Q04DX003 (ip), vehicle: alcohol 113 % of control | dose: 1.56 mg/kg/injection, schedule: Q01DX009 (ip), vehicle: alcohol 105 % of control | dose: 1.56 mg/kg/injection, schedule: Q04DX003 (ip), vehicle: alcohol 96 % of control

CCNC(Cc1ccccc1)c1ccc(OC)cc1 (stereo unspecified)
inactive: dose: 25.0 mg/kg/injection, schedule: Q01DX009 (ip), vehicle: Klucel (hydroxypropylcellulose) (HPC) 97 % of control | dose: 25.0 mg/kg/injection, schedule: Q04DX003 (ip), vehicle: Klucel (hydroxypropylcellulose) (HPC) 110 % of control | dose: 50.0 mg/kg/injection, schedule: Q01DX009 (ip), vehicle: Klucel (hydroxypropylcellulose) (HPC) 94 % of control | dose: 50.0 mg/kg/injection, schedule: Q04DX003 (ip), vehicle: Klucel (hydroxypropylcellulose) (HPC) 102 % of control | [1] 98 % of control and 102 % of control

CCCCCSP(SCCCCC)c1ccccc1
inactive: [3] 92 % of control | [4] 94 % of control

O=C(NCC1=NCCN1)c1ccccc1
inactive: dose: 100.0 mg/kg/injection, schedule: Q04DX002 (ip), vehicle: saline 96 % of control | dose: 200.0 mg/kg/injection, schedule: Q04DX002 (ip), vehicle: saline 89 % of control | dose: 400.0 mg/kg/injection, schedule: Q04DX002 (ip), vehicle: saline 96 % of control

Nc1c(N=O)c(=O)n(Cc2ccccc2)c(=O)n1Cc1ccccc1
inactive: dose: 50.0 mg/kg/injection, schedule: Q01DX001 (ip), vehicle: carboxymethylcellulose (CMC) 103 % of control | dose: 100.0 mg/kg/injection, schedule: Q01DX001 (ip), vehicle: carboxymethylcellulose (CMC) 105 % of control | dose: 200.0 mg/kg/injection, schedule: Q01DX001 (ip), vehicle: carboxymethylcellulose (CMC) 97 % of control | dose: 400.0 mg/kg/injection, schedule: Q01DX001 (ip), vehicle: carboxymethylcellulose (CMC) 100 % of control

O=C(CNC(=O)OCc1ccccc1)NCCCCCCCCCCNC(=O)CNC(=O)OCc1ccccc1
inactive: dose: 10.0 mg/kg/injection, schedule: Q01DX Z (ip), vehicle: saline 104 % of control | dose: 30.0 mg/kg/injection, schedule: Q01DX Z (ip), vehicle: saline 90 % of control | dose: 100.0 mg/kg/injection, schedule: Q01DX Z (ip), vehicle: saline 90 % of control | dose: 300.0 mg/kg/injection, schedule: Q01DX Z (ip), vehicle: saline 95 % of control

CC(C)=CN1CCCCC1
inactive: dose: 50.0 mg/kg/injection, schedule: Q01DX009 (ip), vehicle: saline with Tween-80 95 % of control | dose: 100.0 mg/kg/injection, schedule: Q01DX009 (ip), vehicle: saline with Tween-80 101 % of control | dose: 100.0 mg/kg/injection, schedule: Q04DX003 (ip), vehicle: saline with Tween-80 98 % of control | dose: 200.0 mg/kg/injection, schedule: Q04DX003 (ip), vehicle: saline with Tween-80 96 % of control

CC1(C)C2CCC(CCOC(=O)COc3ccc(Cl)cc3)C1C2 (stereo unspecified)
inactive: [1] 98 % of control | [2] 100 % of control | dose: 400.0 mg/kg/injection, schedule: Q04DX003 (ip), vehicle: Klucel (hydroxypropylcellulose) (HPC) 100 % of control

Cc1ccc(NC(=O)/C=C/c2ccccc2)cc1Cl
inactive: [3] 95 % of control | [4] 98 % of control | dose: 400.0 mg/kg/injection, schedule: Q01DX009 (ip), vehicle: Klucel (hydroxypropylcellulose) (HPC) 104 % of control

Source: PubChem BioAssay AID248 (DTP/NCI, 2004)
